Values quoted from earlier work in patent publication US20100008998A1, “SUBMICRON NANOPARTICLE OF POORLY WATER SOLUBLE CAMPTOTHECIN DERIVATIVES AND PROCESS FOR PREPARATION THEREOF” (SAMYANG CORPORATION, priority 2006, published 2010).
Read-outs that look alike come from different tables or passages of the source.

What was measured:
[1] = in the human body
topoisomerase I = biological target: T1, topoisomerase I (Homo sapiens, UniProt P11387)
T1 sequence (P11387 1-765): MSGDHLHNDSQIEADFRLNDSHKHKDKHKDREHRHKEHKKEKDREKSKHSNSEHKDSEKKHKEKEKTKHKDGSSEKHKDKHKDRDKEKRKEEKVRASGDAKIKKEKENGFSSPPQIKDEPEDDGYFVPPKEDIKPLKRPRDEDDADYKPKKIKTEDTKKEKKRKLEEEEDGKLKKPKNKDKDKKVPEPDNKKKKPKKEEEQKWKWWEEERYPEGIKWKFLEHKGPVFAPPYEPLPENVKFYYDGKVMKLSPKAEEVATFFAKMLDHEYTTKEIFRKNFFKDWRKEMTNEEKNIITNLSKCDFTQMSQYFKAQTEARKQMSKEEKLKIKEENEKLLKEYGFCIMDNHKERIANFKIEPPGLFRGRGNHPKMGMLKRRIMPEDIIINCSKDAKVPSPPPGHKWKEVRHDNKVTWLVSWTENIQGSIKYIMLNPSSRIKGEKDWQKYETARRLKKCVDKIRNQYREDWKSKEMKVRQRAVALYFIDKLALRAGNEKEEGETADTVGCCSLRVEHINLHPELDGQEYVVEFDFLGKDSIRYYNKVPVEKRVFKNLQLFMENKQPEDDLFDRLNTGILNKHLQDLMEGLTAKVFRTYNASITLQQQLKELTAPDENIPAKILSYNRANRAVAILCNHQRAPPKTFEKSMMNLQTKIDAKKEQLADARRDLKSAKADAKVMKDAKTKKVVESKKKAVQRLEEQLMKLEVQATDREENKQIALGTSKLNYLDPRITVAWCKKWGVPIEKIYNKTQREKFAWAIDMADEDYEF

[2] = not given; remark: listed apart in the source

Row | Compound | conversion rate of CPT-11 into the active SN-38 [1] | water solubility | water solubility (active lactone form) | can be dissolved in water in the amounts of (carboxy anion form) | better in suppressing the activity of topoisomerase I compared to CPT-11 (topoisomerase I) | better in in vitro cytotoxicity compared to CPT-11 [2]
1 | CCc1c2c(nc3ccc(OC(=O)N4CCC(N5CCCCC5)CC4)cc13)-c1cc3c(c(=O)n1C2)COC(=O)[C@]3(O)CC [CPT-11] | ≤ 10% | – | – | – | – | –
2 | CCc1c2c(nc3ccc(O)cc13)-c1cc3c(c(=O)n1C2)COC(=O)[C@]3(O)CC [SN-38, 7-Ethyl-10-hydroxycamptothecin] | – | ≤ 10 µg/mL | ≤ 10 µg/mL | ≥ 4 mg/mL | ≥ 1,000 times | ≥ 2,000 times
